Data set [1] has as its system Tetranychus cinnabarinus. Description: Laboratory activity assay on Tetranychus cinnabarinus, leaf disc dipping method. The data set is classed as in vivo. The settings on record: foliar. As to the method: (1) Laboratory activity assay of tenvermectin on Tetranychus cinnabarinus: the laboratory activity of tenvermectin was tested using Tetranychus cinnabarinus as the test pest, and using avermectin as the positive control. The activities were compared between tenvermectin and avermectin.
Test organism: Tetranychus cinnabarinus: it was inoculated to horsebean seedling and cultured under the conditions of artificial climate [(26±1)° C., RH (70±5)%, H/D14].
Test reagents: 96% (w/w) avermectin, 98% (w/w) tenvermectin (TEVA:TEVB=8:2): 1 g 96% avermectin and 98% tenvermectin were weighed and added to a beaker respectively, into which 93 g methanol and 6 g surfactant nonylphenol polyoxyethylene ether were added to give a preparation at a concentration of 10000 mg/L. The preparation was diluted with water into a series of concentrations: 0.005, 0.01, 0.025, and 0.05 mg/L for test.
Experiment method: leaf disc dipping method was employed: adult mites that were raised in laboratory with consistent physiological state were selected. The horsebean leaves with consistent growth condition were selected. 2 cm leaf-discs were prepared using a puncher. The leaf-disc was placed on absorbent cotton in the center of a plastic dish with the back of blade upwards. […] The number of adult mites was counted under a stereomicroscope 2 h later, and the number should not be less than 20 on each leaf disc in the dish. […]

Data set [2] relates to citrus spider mite. Description: Prevention and control effect on citrus spider mite in field. The data set is classed as in vivo, Panonychus citri McGregor. The arrangement: Amount of mites: unit not given here. As for the experimental part: Citrus spider mite (i.e., Panonychus citri McGregor) is one of the primary insect pests for citrus. It has properties, such as small body, fast propagation and multiple generations, which will cause severe damage to citrus. Tenvermectin was prepared as 2% water dispersible granules for the test of prevention and control of citrus spider mite, so as to determine its effect in field.
Test reagents: 2% tenvermectin water dispersible granules (tenvermectin, ethanol and alkylphenol polyoxyethylene ether-formaldehyde condensate in a mass ratio of […]), and 2% avermectin emulsifiable concentrate
Experiment time: in early May, at the young fruit stage of citrus.
Experiment design: the reagents were diluted 2000-, 4000- and 8000-fold, to concentrations of 10 mg/L, 5 mg/L and 2.5 mg/L, respectively. For each concentration, there were 3 repeats. 10 citrus trees were comprised in one small area that was randomly arranged. Water was used as the control, in which 10 citrus trees were tested. 50 kg of reagent was sprayed for each concentration. The reagent was administrated on a sunny day with no rain in following 24 h.
Data analysis: in each small area, 5 trees were examined. For each tree, 2 branches, each located in the east, the south, the west, the north and the center of the tree, were investigated. For each branch, the amount of live mites was counted for total 5 leaves. The amount of live mites was counted before administration and on day 3, 5, 7 and 14 after administration respectively, to calculate the reduction rate of the mite population. The prevention and control effect in field was determined based on the result.

In data set [3] the test system is Bursaphelenchus xylophilus. Description: whole plant or invertebrate. As to the method: Bursaphelenchus xylophilus is the pathogen of pine wilt disease, which results in the death of a great number of pines in the south of China. The laboratory activities of sixteen-membered macrolide compounds, including tenvermectin, avermectin, ivermectin, milbemycin, and emamectin benzoate etc, were tested using Bursaphelenchus xylophilus as the test pest, in order to compare the difference of activities among these reagents on Bursaphelenchus xylophilus.
Test reagents: 5 reagents, including 0.5% avermectin emulsifiable concentrate, 0.5% tenvermectin emulsifiable concentrate, 0.5% ivermectin emulsifiable concentrate, 2% milbemycin emulsifiable concentrate, and 2.5% emamectin benzoate microemulsion.
Experiment method: Dipping method was employed. For each reagent, 5 concentrations were tested, including 2, 5, 10, 20, and 50 mg/L. For each concentration, there were 3 repeats. The results were statistically analyzed at 24 h.

Data set [4] has as its system Bursaphelenchus xylophilus. Kind of data set: Activity of tenvermectin A/B of different ratios on Bursaphelenchus xylophilus. The data set is classed as in vivo. The settings on record: for LC50: in vivo.
Method: The activity of the mixture of tenvermectin A and tenvermectin B with different ratios was tested using Bursaphelenchus xylophilus as the test pest, in order to provide reference for modification and fermentation process of tenvermectin-producing bacteria.
[5] abbreviates: 2.5 mg/L, 3 d after administration, field spray.
Where [6] appears, read: 2.5 mg/L, 5 d after administration.
The mark [7] stands for this setting: 2.5 mg/L, 7 d after administration.
Setting [8] is: 2.5 mg/L, 14 d after administration.
The mark [9] stands for this setting: 5.0 mg/L, 3 d after administration.
[10] abbreviates: 5.0 mg/L, 5 d after administration.
The mark [11] stands for this setting: 5.0 mg/L, 7 d after administration.
Setting [12] is: 5.0 mg/L, 14 d after administration.
Setting [13] is: 10.0 mg/L, 3 d after administration.
Where [14] appears, read: 10.0 mg/L, 5 d after administration.
Setting [15] is: 10.0 mg/L, 7 d after administration.
Setting [16] is: 10.0 mg/L, 14 d after administration.
Where [17] appears, read: Bursaphelenchus xylophilus, 24 h, read-out: Mortality at different concentrations.
[18] abbreviates: 2 mg/L, 24 h, dipping, reagents applied as emulsifiable concentrate/microemulsion.

Converted amounts (≈) assume the structure as drawn. Read-outs that look alike come from different tables or passages of the source.

On to `CC[C@H](C)[C@H]1O[C@]2(C=C[C@@H]1C)C[C@@H]1C[C@@H](C/C=C(\C)[C@@H](O[C@H]3C[C@H](OC)[C@@H](O[C@H]4C[C@H](OC)[C@@H](O)[C@H](C)O4)[C@H](C)O3)[C@@H](C)/C=C/C=C3\CO[C@@H]4[C@H](O)C(C)=C[C@@H](C(=O)O1)[C@]34O)O2` [avermectin], for which the LC50 in data set [1] (24 h) is 0.0083 µg/mL (≈ 9.51 nM); in data set [1] (read-out: LC50 on Tetranychus cinnabarinus), 0.0083 µg/mL (≈ 9.51 nM); in data set [3] (Bursaphelenchus xylophilus, 24 h) it was 5.35 µg/mL (≈ 6130 nM). For the same molecule, the Amount of mites in data set [2] (setting [5]) worked out at 2.0; in data set [2] (setting [6]), 1.5; in data set [2] (setting [7]) it was 1.8; in data set [2] (setting [8]), 1.9; in data set [2] (setting [9]), 0.4; in data set [2] (setting [10]), 1.0. For the same molecule, the Amount of mites in data set [2] (setting [11]) is recorded as 1.3; in data set [2] (setting [12]) it was 1.4; in data set [2] (setting [13]), 1.4; in data set [2] (setting [14]) it was 1.1; in data set [2] (setting [15]) it was 0.7; in data set [2] (setting [16]), 5.3. Further, the Effect amounted to 80.5c in data set [2] (setting [5]); 86.7b in data set [2] (setting [6]); 87.3c in data set [2] (setting [7]); 80.1b in data set [2] (setting [8]); 91.2ab in data set [2] (setting [9]); 87.3b in data set [2] (setting [10]). For the same molecule, the Effect in data set [2] (setting [11]) was 88.1c; in data set [2] (setting [12]), 80.4b; in data set [2] (setting [13]), 81.6c; in data set [2] (setting [14]), 90.6b; in data set [2] (setting [15]), 95.5c; in data set [2] (setting [16]), 83.0b. For the same molecule, the mortality at 2 µg/mL in data set [3] (setting [17]) amounted to 43.2%. In addition, the mortality at 5 µg/mL in data set [3] (setting [17]) came to 46.1%. Also, the mortality at 10 µg/mL in data set [3] (setting [17]) turned out to be 63.1%. Besides, the mortality at 20 µg/mL in data set [3] (setting [17]) worked out at 66.9%. Moreover, in data set [3] (setting [17]), the mortality at 50 µg/mL is 78%.

emamectin benzoate: the “Mortality at different concentrations” value in data set [3] (setting [18]) turned out to be 48.27%; in data set [3] (5 mg/L, 24 h, dipping), 61.68%; in data set [3] (10 mg/L, 24 h, dipping), 67.44%; in data set [3] (20 mg/L, 24 h, dipping), 75%; in data set [3] (50 mg/L, 24 h, dipping), 86.67%. The molecule also showed an LC50 in data set [3] (24 h, dipping) of 2.8055 µg/mL.

For the molecule ivermectin, the “Mortality at different concentrations” value in data set [3] (setting [18]) was 18.52%; in data set [3] (5 mg/L, 24 h, dipping), 42.55%; in data set [3] (10 mg/L, 24 h, dipping) it was 57.47%; in data set [3] (20 mg/L, 24 h, dipping), 58.33%; in data set [3] (50 mg/L, 24 h, dipping), 78.94%. This molecule registered an LC50 in data set [3] (24 h, dipping) of 11.0629 µg/mL.

In data set [3] (in vivo), milbemycin had an LC50 of 5.0123 µg/mL.

Consider tenvermectin A, for which, in data set [4], the LC50 stood at 6.592 µg/mL.

Regarding tenvermectin B, the LC50 in data set [4] was 3.4816 µg/mL. Also, in data set [4] (in words), the “relative activity of tenvermectin A/B ratios on Bursaphelenchus xylophilus” value is given as “higher than that of tenvermectin A”.
